Like-named read-outs stand apart in the source and are kept apart here.
How the values were obtained:
[1] = biological target: porcine pepsin (Sus scrofa, UniProt P00791); test: Inhibition of substrate hydrolysis by porcine pepsin; format: biochemical
[2] = biological target: T1, R. chinensis pepsin (Rhizopus chinensis, UniProt P06026); test: biochemical
T1 sequence (P06026 69-393): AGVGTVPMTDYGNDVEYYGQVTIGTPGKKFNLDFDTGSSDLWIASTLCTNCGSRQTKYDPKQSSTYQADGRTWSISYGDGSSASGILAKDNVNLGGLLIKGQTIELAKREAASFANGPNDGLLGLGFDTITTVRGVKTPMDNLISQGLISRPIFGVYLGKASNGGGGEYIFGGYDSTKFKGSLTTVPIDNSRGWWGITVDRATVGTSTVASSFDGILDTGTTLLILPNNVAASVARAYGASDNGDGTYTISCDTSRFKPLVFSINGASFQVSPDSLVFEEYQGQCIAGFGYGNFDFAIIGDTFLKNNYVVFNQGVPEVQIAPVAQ
Description: Inhibition of substrate hydrolysis by porcine pepsin and R. chinensis pepsin was determined using prior art assay conditions. See Flentke et al. (1999) Protein Expression Purif. 16:213 and Peranteau et al. (1995) Anal. Biochem. 227:242.

[3] = biological target: human renin (Homo sapiens, UniProt P00797); conditions: cited from earlier work
human renin, sequence (P00797 67-406): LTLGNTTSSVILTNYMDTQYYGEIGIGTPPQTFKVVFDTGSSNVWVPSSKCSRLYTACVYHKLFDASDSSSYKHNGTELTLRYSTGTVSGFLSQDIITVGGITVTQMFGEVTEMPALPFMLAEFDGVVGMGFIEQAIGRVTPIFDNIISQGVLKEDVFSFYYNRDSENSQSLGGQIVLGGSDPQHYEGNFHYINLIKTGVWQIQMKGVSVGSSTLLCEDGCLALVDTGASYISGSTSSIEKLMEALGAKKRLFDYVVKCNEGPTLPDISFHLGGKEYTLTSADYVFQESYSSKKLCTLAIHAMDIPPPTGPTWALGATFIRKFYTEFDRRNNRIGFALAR

porcine pepsin, sequence (P00791 60-385): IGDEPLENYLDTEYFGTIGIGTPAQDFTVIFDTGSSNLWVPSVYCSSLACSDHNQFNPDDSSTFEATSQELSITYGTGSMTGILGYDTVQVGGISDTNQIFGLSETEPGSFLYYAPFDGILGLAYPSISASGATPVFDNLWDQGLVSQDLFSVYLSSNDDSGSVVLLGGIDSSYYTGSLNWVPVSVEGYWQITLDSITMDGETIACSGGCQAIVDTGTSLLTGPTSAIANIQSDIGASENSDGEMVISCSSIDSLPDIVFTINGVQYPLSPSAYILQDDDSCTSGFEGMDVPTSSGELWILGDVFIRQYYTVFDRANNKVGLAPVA

O=C(COc1ccc([C@H]2CCNC[C@@H]2OCc2ccc(Br)cc2)cc1)c1ccc2ccccc2c1 [Compound 11]
IC50 ([1]; porcine pepsin, read-out: IC50): 200 nM
IC50 [2]: 200 nM

COc1ccc(CO[C@H]2CNCCC2c2ccc(Cl)cc2)cc1 (stereo partly drawn) [Compound 4]
concentrations at which renin is inhibited (in words) ([3]; human renin, literature): low micromolar
IC50 ([3]; read-out: inhibits renin at, renin, literature value): ~26000 nM

Brc1ccc(CO[C@H]2CNCC[C@@H]2c2ccccc2)cc1 [Compound 12]
IC50 [1]: 2000 nM
IC50 ([2]; R. chinensis pepsin, read-out: IC50): 2000 nM
